Test results reported in PubChem BioAssay (NCI).
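In this assay, cells in 96-well plates receive the compound at five concentrations for 48 hours. Endpoints are linearly interpolated between the surrounding concentrations. Here, GI50 denotes the concentration required for 50% inhibition of growth. TGI is the concentration that stops growth completely.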

Columns and labels:
Test in all cases: inhibition of tumour cell growth, NCI panel, 48 h; in the data active = GI50 below about 0.43 µM; inactive = the rest
CAKI-1 renal = system: CAKI-1 renal
OVCAR-4 ovarian = system: OVCAR-4 ovarian
SW-620 colon = system: SW-620 colon
UACC-257 melanoma = system: UACC-257 melanoma
COLO 205 colon = system: COLO 205 colon
SK-MEL-2 melanoma = system: SK-MEL-2 melanoma
NCI-H460 lung = system: NCI-H460 lung
KM20L2 colon = system: KM20L2 colon
LOX IMVI melanoma = system: LOX IMVI melanoma
HOP-62 NSCLC = system: HOP-62 NSCLC
LXFL 529 NSCLC = system: LXFL 529 NSCLC
DMS 114 small cell lung = system: DMS 114 small cell lung
SR leukemia = system: SR leukemia
M14 melanoma = system: M14 melanoma
MALME-3M melanoma = system: MALME-3M melanoma
HCC-2998 colon = system: HCC-2998 colon
HCT-15 colon = system: HCT-15 colon
DMS 273 small cell lung = system: DMS 273 small cell lung
SN12C renal = system: SN12C renal
HOP-18 NSCLC = system: HOP-18 NSCLC
HCT-116 colon = system: HCT-116 colon
HT29 colon = system: HT29 colon
HOP-92 NSCLC = system: HOP-92 NSCLC
OVCAR-5 ovarian = system: OVCAR-5 ovarian
NCI-H226 lung = system: NCI-H226 lung
OVCAR-8 ovarian = system: OVCAR-8 ovarian
UO-31 renal = system: UO-31 renal
SF-295 CNS = system: SF-295 CNS
HL-60(TB) leukemia = system: HL-60(TB) leukemia
OVCAR-3 ovarian = system: OVCAR-3 ovarian
KM12 colon = system: KM12 colon
M19-MEL melanoma = system: M19-MEL melanoma
NCI-H522 lung = system: NCI-H522 lung
786-0 renal = system: 786-0 renal
U251 CNS = system: U251 CNS
SK-OV-3 ovarian = system: SK-OV-3 ovarian
MOLT-4 leukemia = system: MOLT-4 leukemia
UACC-62 melanoma = system: UACC-62 melanoma
A498 renal = system: A498 renal
NCI-H23 lung = system: NCI-H23 lung
SK-MEL-5 melanoma = system: SK-MEL-5 melanoma
DLD-1 colon = system: DLD-1 colon
IGROV1 ovarian = system: IGROV1 ovarian
SNB-19 CNS = system: SNB-19 CNS
SNB-75 CNS = system: SNB-75 CNS
K-562 leukemia = system: K-562 leukemia
TK-10 renal = system: TK-10 renal
RPMI-8226 leukemia = system: RPMI-8226 leukemia
ACHN renal = system: ACHN renal
SK-MEL-28 melanoma = system: SK-MEL-28 melanoma
EKVX NSCLC = system: EKVX NSCLC
CCRF-CEM leukemia = system: CCRF-CEM leukemia
A549 NSCLC = system: A549 NSCLC
SF-268 CNS = system: SF-268 CNS
SNB-78 CNS = system: SNB-78 CNS
SF-539 CNS = system: SF-539 CNS

COc1ccc(C(=O)C(C(=O)CCC(=O)Nc2ccc(C)c(C)c2)c2ccc(OC)cc2)cc1 (stereo not drawn)
> 100 µM: TGI (CAKI-1 renal) | TGI (OVCAR-4 ovarian) | TGI (SW-620 colon) | TGI (UACC-257 melanoma) | TGI (COLO 205 colon) | TGI (SK-MEL-2 melanoma) | TGI (NCI-H460 lung) | TGI (KM20L2 colon) | TGI (LOX IMVI melanoma) | TGI (HOP-62 NSCLC) | TGI (LXFL 529 NSCLC) | TGI (DMS 114 small cell lung) | TGI (SR leukemia) | TGI (M14 melanoma) | TGI (MALME-3M melanoma) | TGI (HCC-2998 colon) | TGI (HCT-15 colon) | TGI (DMS 273 small cell lung) | TGI (SN12C renal) | TGI (HOP-18 NSCLC) | TGI (HCT-116 colon) | TGI (HT29 colon) | TGI (HOP-92 NSCLC) | TGI (OVCAR-5 ovarian) | TGI (NCI-H226 lung) | TGI (OVCAR-8 ovarian) | TGI (UO-31 renal) | TGI (SF-295 CNS) | TGI (HL-60(TB) leukemia) | TGI (OVCAR-3 ovarian) | TGI (KM12 colon) | TGI (M19-MEL melanoma)

Cc1nc2ccccc2c(=O)n1-c1ccccc1I
> 100 µM: TGI (NCI-H522 lung) | TGI (786-0 renal) | TGI (CAKI-1 renal) | TGI (U251 CNS) | TGI (OVCAR-4 ovarian) | TGI (SW-620 colon) | TGI (SK-OV-3 ovarian) | TGI (UACC-257 melanoma) | TGI (MOLT-4 leukemia) | TGI (COLO 205 colon) | TGI (UACC-62 melanoma) | TGI (A498 renal) | TGI (NCI-H23 lung) | TGI (SK-MEL-5 melanoma) | TGI (SK-MEL-2 melanoma) | TGI (NCI-H460 lung) | TGI (DLD-1 colon) | TGI (HOP-62 NSCLC) | TGI (LXFL 529 NSCLC) | TGI (DMS 114 small cell lung) | TGI (SR leukemia) | TGI (IGROV1 ovarian) | TGI (SNB-19 CNS) | TGI (M14 melanoma) | TGI (SNB-75 CNS) | TGI (MALME-3M melanoma) | TGI (HCC-2998 colon) | TGI (HCT-15 colon) | TGI (SN12C renal) | TGI (K-562 leukemia) | TGI (TK-10 renal) | TGI (RPMI-8226 leukemia) | TGI (ACHN renal) | TGI (HCT-116 colon) | TGI (SK-MEL-28 melanoma) | TGI (HT29 colon) | TGI (OVCAR-5 ovarian) | TGI (NCI-H226 lung) | TGI (OVCAR-8 ovarian) | TGI (UO-31 renal) | TGI (EKVX NSCLC) | TGI (SF-295 CNS) | TGI (HL-60(TB) leukemia) | TGI (CCRF-CEM leukemia) | TGI (A549 NSCLC) | TGI (SF-268 CNS) | TGI (SNB-78 CNS) | TGI (OVCAR-3 ovarian) | TGI (M19-MEL melanoma)

CN/N=C(/Cc1occc(=O)c1O)C(=O)Nc1ccccc1C
> 100 µM: TGI (NCI-H522 lung) | TGI (786-0 renal) | TGI (CAKI-1 renal) | TGI (U251 CNS) | TGI (OVCAR-4 ovarian) | TGI (SW-620 colon) | TGI (SK-OV-3 ovarian) | TGI (UACC-257 melanoma) | TGI (MOLT-4 leukemia) | TGI (COLO 205 colon) | TGI (UACC-62 melanoma) | TGI (A498 renal) | TGI (NCI-H23 lung) | TGI (SK-MEL-5 melanoma) | TGI (SK-MEL-2 melanoma) | TGI (NCI-H460 lung) | TGI (KM20L2 colon) | TGI (LOX IMVI melanoma) | TGI (HOP-62 NSCLC) | TGI (LXFL 529 NSCLC) | TGI (DMS 114 small cell lung) | TGI (SR leukemia) | TGI (IGROV1 ovarian) | TGI (SNB-19 CNS) | TGI (M14 melanoma) | TGI (MALME-3M melanoma) | TGI (HCC-2998 colon) | TGI (HCT-15 colon) | TGI (SN12C renal) | TGI (K-562 leukemia) | TGI (TK-10 renal) | TGI (RPMI-8226 leukemia) | TGI (ACHN renal) | TGI (HCT-116 colon) | TGI (SK-MEL-28 melanoma) | TGI (HT29 colon) | TGI (HOP-92 NSCLC) | TGI (OVCAR-5 ovarian) | TGI (NCI-H226 lung) | TGI (OVCAR-8 ovarian) | TGI (UO-31 renal) | TGI (EKVX NSCLC) | TGI (SF-295 CNS) | TGI (HL-60(TB) leukemia) | TGI (SF-539 CNS) | TGI (CCRF-CEM leukemia) | TGI (A549 NSCLC) | TGI (SF-268 CNS) | TGI (SNB-78 CNS) | TGI (OVCAR-3 ovarian) | TGI (KM12 colon) | TGI (M19-MEL melanoma)

N.N.N.N.O=[N+]([O-])[O-].[Co+3].[N-]=[N+]=[N-].[N-]=[N+]=[N-]
inactive: GI50 (KM20L2 colon) > 100 µM | GI50 (DLD-1 colon) > 100 µM | GI50 (LXFL 529 NSCLC) > 100 µM | GI50 (DMS 273 small cell lung) > 100 µM | GI50 (SNB-78 CNS) > 100 µM
> 100 µM: TGI (NCI-H522 lung) | TGI (786-0 renal) | TGI (U251 CNS) | TGI (OVCAR-4 ovarian) | TGI (SW-620 colon) | TGI (SK-OV-3 ovarian) | TGI (UACC-257 melanoma) | TGI (MOLT-4 leukemia) | TGI (COLO 205 colon) | TGI (UACC-62 melanoma) | TGI (A498 renal) | TGI (NCI-H23 lung) | TGI (SK-MEL-5 melanoma) | TGI (SK-MEL-2 melanoma) | TGI (NCI-H460 lung) | TGI (KM20L2 colon) | TGI (DLD-1 colon) | TGI (LOX IMVI melanoma) | TGI (HOP-62 NSCLC) | TGI (LXFL 529 NSCLC) | TGI (IGROV1 ovarian) | TGI (SNB-19 CNS) | TGI (M14 melanoma) | TGI (SNB-75 CNS) | TGI (MALME-3M melanoma) | TGI (HCC-2998 colon) | TGI (HCT-15 colon) | TGI (DMS 273 small cell lung) | TGI (SN12C renal) | TGI (K-562 leukemia) | TGI (TK-10 renal) | TGI (RPMI-8226 leukemia) | TGI (ACHN renal) | TGI (HCT-116 colon) | TGI (SK-MEL-28 melanoma) | TGI (HT29 colon) | TGI (HOP-92 NSCLC) | TGI (OVCAR-5 ovarian) | TGI (OVCAR-8 ovarian) | TGI (UO-31 renal) | TGI (EKVX NSCLC) | TGI (SF-295 CNS) | TGI (HL-60(TB) leukemia) | TGI (SF-539 CNS) | TGI (CCRF-CEM leukemia) | TGI (A549 NSCLC) | TGI (SF-268 CNS) | TGI (SNB-78 CNS) | TGI (OVCAR-3 ovarian) | TGI (KM12 colon)
